In US20200268864A1, “CANCER VACCINE COMPOSITIONS AND METHODS FOR USING SAME TO TREAT CANCER” (Dana-Farber Cancer Institute, Inc., priority 2017, published 2020):
“Also recorded” adds a separate entry of the source.

Legend:
[1] = system: PBM tumors (Trp53−/−; Brca1−/−; c-Myc); experiment: Orthotopic PBM tumor allograft growth and survival (bioluminescence); type: in vivo, mouse
Procedure: All animal experiments described in this study were performed according to the animal protocols approved by the DFCI Institutional Animal Care and Use Committee. Brca1^loxP/loxP [FVB/N] mice, bearing loxP sites in introns 4 and 13 of the Brca1 gene, and Trp53^loxP/loxP[FVB/N] mice bearing loxP in introns 2 and 10 of the p53 gene, were obtained from Dr. Jos Jonkers's laboratory (Netherlands Cancer Institute, Amsterdam, The Netherlands). These mice were intercrossed through multiple generations to create a colony of homozygous Trp53^loxP/loxP/Brca1^loxP/loxP double conditional knockout mice. Ovaries were harvested from 8-week-old female Trp53^loxP/loxP/Brca1^loxP/loxP mice. The ovaries were washed twice with phosphate-buffered and incubated in DMEM/F12 (Ham's) medium containing collagenase and dispase (stem cell technologies) for 40 min at 37° C. The epithelial cells were pelleted by centrifugation at 800×g and cultured in DMEM/F12 (Life Technologies) supplemented with 4% (vol/vol) FBS, 1% penicillin/streptomycin, 10 ng/mL EGF, 5 μg/mL insulin, 5 Cpg/mL transferrin, and 5 ng/mL sodium selenite. Ovarian surface epithelial (OSE) cells were cultured for 48 hr and then introduced with Adeno-Cre (University of Iowa) and lentiviruses expressing C-Myc gene (Addgene #36980) or control GFP. After two days of infection in vitro, OSE cells are aggregated and implanted into recipient mice. About 5×10^5 OSE cells (Trp53^−/−; Brca1^−/−; c-Myc) were injected into the right ovarian bursal cavities of 6- to 7-week-old female nude mice. In each mouse, the left ovarian bursa was injected with GFP-expressing OSE cells (Trp53^−/−; Brca1^−/−; GFP). PBM (Trp53^−/−; Brca1^−/−; c-Myc) ovarian tumors developed within three to six months after implantation of the genetically engineered OSE cells. The primary ovarian tumors were digested and orthotopically transplanted to FVB/NJ mice. The PPM GEM model (Trp53^−/−; Pten^−/−; c-Myc) was developed with OSE cells isolated from homozygous Trp53^loxP/loxP/Pten^loxP/loxP(FVB/NJ) double conditional knockout mice using the same strategy for generation of the PBM GEM model described above. For histological analysis, tumor pieces were fixed in 10% Formalin overnight and transferred to 70% ethanol. Embedding, sectioning and H&E staining was performed by scientists at the Harvard rodent histopathology core facility. The histological characteristics of high grade ovarian tumor were confirmed by two independent pathologists at Harvard Medical School.
Single cells were obtained by digestion of primary ovarian tumors in collagenase buffer and then cultured in MOT media (DMEM/F12, 0.6% FBS, 10 ng/ml EGF, hydrocortisone 1 μg/ml, cholera toxin 1 ng/ml, 100 μg/ml penicillin-streptomycin, 5 μM Y27632). […] The endpoints were determined by tumor burden and ascites. […]

PBM cells = experiment: Cytosolic dsDNA (PicoGreen) and micronuclei staining, PBM cells; type: cell-based, mouse; settings: 2.5 μM, 24 h
Procedure: PBM and PPM cells were cultured on chambered cell culture slides (BD Falcon). Cells were treated with 2.5 μM olaparib or vehicle control (DMSO) for 24 hours. Following the treatment, cells were incubated with culture media containing PicoGreen double-stranded DNA stain (200-fold dilution, Life Technologies). After one-hour incubation, cells were fixed with 4% paraformaldehyde in PBS (Santa Cruz Biotechnology) for 10 minutes. Cells were then washed twice with PBS and stained with 300 nM DAPI (Thermo Fisher Scientific) for 10 minutes. Coverslips were mounted using ProLong Diamond Antifade Mountant (Thermo Fisher Scientific). Staining was imaged using a Leica SP5X laser scanning confocal microscope.

[2] = system: Brca1-proficient and Brca1-deficient tumor cells; experiment: Measurement of IC50 value in tumor cells (MTS, 72 h); type: cell-based; settings: three pairs of models; for gemcitabine except PPM and PBM cells
Procedure: Tumor cells were seeded in 96-well plates at a density of 1000-3000/well and allowed to adhere overnight. Cells were then exposed to appropriate concentrations of therapeutic agents (or vehicle control) with continuous exposure for 72 h. Growth inhibition was measured by CellTiter Aqueous MTS reagent from Promega by comparing the absorbance at 490 nm of drug-treated cells to that of untreated controls set at 100%. 1C50 values were calculated using non-linear regression model (logarithmic inhibitor vs. normalized response-variable slope) in Graphpad Prism 7.

`O=C(c1cc(Cc2n[nH]c(=O)c3ccccc23)ccc1F)N1CCN(C(=O)C2CC2)CC1` [olaparib, Olaparib] was tested, and the “tumor growth / tumor progression (tumor burden by bioluminescence)” value ([1]; PBM tumor-bearing FVB mice, olaparib 50 mg/kg daily i.p., anti-PD-1 250 μg/mouse i.p. every 3 days) was “significantly delayed tumor progression; also recorded: delayed tumor growth; also recorded: effectively inhibit the growth”, the “therapeutic effect of olaparib in Rag1−/− host mice” value ([1]; PBM tumors in Rag1−/− vs wild-type FVB mice) was “partially abrogated” and the “survival of PBM tumor-bearing mice” value ([1]; mouse, in vivo) was “significantly prolonged the survival; also recorded: eventually succumbed to the disease”. The “cytosolic dsDNAs and micronuclei” value (PBM cells) was “increased” and the “IC50 values, Brca1-deficient lines in comparison to Brca1-proficient counterparts” value [2] was “much more sensitive”.
